# Experimental data as given in US5281264A, “Salt-forming type dye and ink composition” (Orient Chemical Industries, Ltd., priority 1992, dated 1994).
# Assay: Visible absorption of salt-forming type dyes (λmax)
# Type: physicochemical
# Conditions: spectra of dyes 1 and 4 in methanol solvent
# Method: A structure of the dye is shown in the following formula, and hue and maximum absorption wavelength (λmax) are shown in Table. 1.
# A structure of each salt-forming type dye is shown in the following formula, respectively. 1. [drawing 5]
# Rhodamine 6 GCP (C.I. Basic Red) (140 parts, 0.3 mols) as a cation component was dissolved in water with stirring to prepare a 3% aqueous solution, which was then filtered. Thereafter, this solution (pH 2 to 4) was added dropwise to the dyestuff solution over 50 minutes, followed by stirring at 40° to 50° C. for 3 hours. The solution was heated to 65° C. to form a grit, followed by filtration, rinsing and further drying to obtain 200 parts of a powdered red salt-forming type dye (dye 4) having a structure of the following formula. It was confirmed that the resulting dye is a salt-forming type dye having n (2<n<3). 1. [drawing 6]
# It was confirmed that the resulting dye has a structure of the following formula. 1. [drawing 7]
# It was confirmed that the resulting dye has a structure of the following formula. 1. [drawing 8]
smiles,measurement,setting,value
Cc1nn(-c2ccccc2)c(O)c1N=Nc1ccc(-c2ccc(N=Nc3c(C)nn(-c4ccccc4)c3O)cc2S(=O)(=O)O)c(S(=O)(=O)O)c1 [dye 7],Salt-forming type dye λmax (maximum absorption wavelength),listed as Comp. Ex. 1,422 nm
Cc1nn(-c2ccccc2)c(O)c1N=Nc1ccc(-c2ccc(N=Nc3c(C)nn(-c4ccccc4)c3O)cc2S(=O)(=O)O)c(S(=O)(=O)O)c1 [dye 8],Salt-forming type dye λmax (maximum absorption wavelength),listed as Comp. Ex. 2,422 nm
Cc1nn(-c2ccccc2)c(O)c1N=Nc1ccc(-c2ccc(N=Nc3c(C)nn(-c4ccccc4)c3O)cc2S(=O)(=O)O)c(S(=O)(=O)O)c1 [dye 9],Salt-forming type dye λmax (maximum absorption wavelength),listed as Comp. Ex. 3,525 nm
Cc1nn(-c2ccccc2)c(O)c1N=Nc1ccc(-c2ccc(N=Nc3c(C)nn(-c4ccccc4)c3O)cc2S(=O)(=O)O)c(S(=O)(=O)O)c1 [dye 10],Salt-forming type dye λmax (maximum absorption wavelength),listed as Comp. Ex. 4,578 nm
